Test results as given in US9688662B2, “N-(2,3-dihydro-1H-pyrrolo[2,3-b]pyridin-5-yl)-4-quinazolinamine and N-(2,3-dihydro-1H-indol-5-yl)-4-quinazolinamine derivatives as perk inhibitors” (Janssen Pharmaceutica NV, priority 2013, dated 2017).

Tests used:
PERK [1] = target: T1, PERK (Homo sapiens, UniProt Q9NZJ5); test: Cell-based PERK inhibition assay (TR-FRET, phosphorylation of GFP-eIF2 alpha in HEK293 cells, tunicamycin); conditions: HEK293 (LanthaScreen eIF2α GripTite) cells, compounds 60 min, tunicamycin 2 microg/ml 120 min; for IC50: read-out: P-eIF2alpha_Lantha_cell pIC50 (converted)
T1 sequence (Q9NZJ5 30-1116): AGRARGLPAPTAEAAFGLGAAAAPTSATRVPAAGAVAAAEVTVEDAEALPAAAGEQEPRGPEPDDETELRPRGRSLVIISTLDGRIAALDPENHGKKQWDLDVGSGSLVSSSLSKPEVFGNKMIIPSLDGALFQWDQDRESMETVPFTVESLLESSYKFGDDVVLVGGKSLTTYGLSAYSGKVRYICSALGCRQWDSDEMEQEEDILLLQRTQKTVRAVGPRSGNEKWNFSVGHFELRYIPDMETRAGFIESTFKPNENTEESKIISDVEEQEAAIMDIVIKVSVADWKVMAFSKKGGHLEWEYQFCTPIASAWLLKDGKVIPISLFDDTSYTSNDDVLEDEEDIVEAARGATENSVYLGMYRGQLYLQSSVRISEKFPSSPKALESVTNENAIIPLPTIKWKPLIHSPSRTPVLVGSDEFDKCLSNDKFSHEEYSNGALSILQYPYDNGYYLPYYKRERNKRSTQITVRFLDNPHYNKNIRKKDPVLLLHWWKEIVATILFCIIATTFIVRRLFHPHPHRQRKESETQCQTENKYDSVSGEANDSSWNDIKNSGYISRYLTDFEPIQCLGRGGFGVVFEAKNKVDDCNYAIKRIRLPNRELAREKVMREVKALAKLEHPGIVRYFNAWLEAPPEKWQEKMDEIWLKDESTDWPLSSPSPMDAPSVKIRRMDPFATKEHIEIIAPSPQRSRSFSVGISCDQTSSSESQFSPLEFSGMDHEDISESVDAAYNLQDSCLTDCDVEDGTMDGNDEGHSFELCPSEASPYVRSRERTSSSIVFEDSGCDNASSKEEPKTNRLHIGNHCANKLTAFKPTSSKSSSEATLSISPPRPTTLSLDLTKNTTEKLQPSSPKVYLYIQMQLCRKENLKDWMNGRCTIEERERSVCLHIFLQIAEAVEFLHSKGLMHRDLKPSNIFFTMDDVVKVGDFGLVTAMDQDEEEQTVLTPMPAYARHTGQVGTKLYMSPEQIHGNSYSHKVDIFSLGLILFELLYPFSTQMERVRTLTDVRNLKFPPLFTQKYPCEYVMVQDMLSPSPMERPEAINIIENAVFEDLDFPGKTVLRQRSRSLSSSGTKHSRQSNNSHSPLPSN
Protocol: A cell-based TR-FRET assay to measure inhibition of phosphorylation of GFP-eIF2 alpha expressed in HEK293 cells by compounds was set up as follows:
LanthaScreen® eIF2α GripTite cells (Invitrogen M4387) were plated and incubated for 16-20 h at 37° C. and 5% CO2, incubated with test compounds for 60 min, and then stimulated with tunicamycin (2 microg/ml) for 120 min. Culture medium was aspirated from the wells and, the cells were lysed in LanthaScreen® Cellular Assay Lysis Buffer (Invitrogen; PV5598), supplemented with protease inhibitor cocktail (Sigma P8340, 1/1000 dilution) and phosphatase inhibitor cocktail (Sigma P0044, 1/1000 dilution), including 2 nM terbium-labeled eIF2a pSer52 antibody (Invitrogen; PV4816).

PERK [2] = target: T1, PERK; test: In-vitro PERK enzyme inhibition assay (LanthaScreen, KIN_PERK); type: biochemical; set-up: GST (N); purchased Invitrogen PV5106; conditions: recombinant GST-PERK, GFP-eIF2 alpha substrate, 5 μM ATP, 60 minutes; for IC50: read-out: KIN_PERK pIC50 (converted)
Protocol: Pharmacology i) In-Vitro PERK Enzyme Inhibition Assay (KIN_PERK pIC50)
The compounds of the invention were tested for inhibitory activity against PERK in an enzyme inhibition assay.
A biochemical PERK kinase assay using LanthaScreen® technology from Invitrogen using recombinant GST-PERK (Invitrogen PV5106), GFP-eIF2 alpha (full length) as substrate (Invitrogen PV4809) and the Terbium-labeled antibody (Tb-anti-peIF2alpha (pSer52); Invitrogen PV4816) as detection reagent, was performed essentially as described by the manufacturer, using following specific parameters: […]

| SMILES | IC50 (PERK [1]) [nM] | IC50 (PERK [2]) [nM] | melting point [°C] | KIN_PERK pIC50 (PERK [2]) | P-eIF2alpha_Lantha_cell pIC50 (PERK [1]) |
| --- | --- | --- | --- | --- | --- |
| COc1cc2ncnc(Nc3ccc4c(c3)CCN4C(=O)Cc3c[nH]c4ccccc34)c2cc1OC [Compound 40] | 631 | 12.6 | 180 | – | – |
| COc1cc2ncnc(Nc3ccc4c(c3)CCN4C(=O)Cc3c(Br)cnn3C)c2cc1OC [Compound 11, 2-(4-bromo-2-methyl-pyrazol-3-yl)-1-[5-[(6,7-dimethoxyquinazolin-4-yl)amino]indolin-1-yl]ethanone] | 251 | 7.94 | 170 | – | – |
| COc1cc2ncnc(Nc3ccc4c(c3)CCN4C(=O)Cn3ccnc3)c2cc1OC [Compound 53] | > 10000 | > 10000 | 174 | – | – |
| COc1cc2ncnc(Nc3ccc4c(c3)CCN4C(=O)Cc3csc4ccccc34)c2cc1OC [Compound 16] | 501 | 5.01 | 161 | – | – |
| COc1cc2ncnc(Nc3ccc4c(c3)CCN4C(=O)Cc3c(C)n(C)c4ccccc34)c2cc1OC [Compound 5] | 63.1 | 1.26 | 168 | – | – |
| COc1cc2ncnc(Nc3ccc4c(c3)CCN4C(=O)Cn3ccc4ccccc43)c2cc1OC [Compound 15] | ~302 | – | 176 | 8.2 | – |
| COc1cc2ncnc(Nc3ccc4c(c3F)CCN4C(=O)Cc3cc(F)ccc3F)c2cc1OC [Compound 3] | 50.1 | 0.398 | 210 | – | – |
| COc1cc2ncnc(Nc3ccc4c(c3)CCN4C(=O)Cc3cc(F)ccc3F)c2cc1OC [Compound 42] | 631 | 6.31 | > 260 | – | – |
| COc1cc2ncnc(Nc3ccc4c(c3)CCN4C(=O)Cc3ccn(C)n3)c2cc1OC [Compound 28] | – | – | 199 | 6.6 | 5.1 |
| COc1cc2ncnc(Nc3ccc4c(c3)CCN4C(=O)Cc3cccs3)c2cc1OC [Compound 20] | 1260 | 31.6 | 219 | – | – |
